Laboratory results as given in ChEMBL document CHEMBL1201862, “PubChem BioAssay data set” (2004).
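Briefly, cells in 96-well plates were exposed to five compound concentrations for 48 h, and endpoints were estimated by linear interpolation. Abbreviation: GI50, concentration required for 50% inhibition of growth.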 Activity calls are given as the source filed them. Rule as the data show it: active = GI50 up to about 1.1 µM and inactive = higher.

Legend:
Assay in all cases: NCI tumour cell line growth inhibition, 48 h
786-0 = system: 786-0
HCT-116 = system: HCT-116
HOP-62 = system: HOP-62
K562 = system: K562
MOLT-4 = system: MOLT-4
NCI-H460 = system: NCI-H460
OVCAR-8 = system: OVCAR-8
PC-3 = system: PC-3
SF-268 = system: SF-268
SK-MEL-28 = system: SK-MEL-28
SK-OV-3 = system: SK-OV-3
SN12C = system: SN12C
SW-620 = system: SW-620
U-251 = system: U-251
UACC-62 = system: UACC-62
CCRF-CEM = system: CCRF-CEM
SF-295 = system: SF-295
SR = system: SR
TK-10 = system: TK-10

SMILES	GI50 (786-0)	GI50 (HCT-116)	GI50 (HOP-62)	GI50 (K562)	GI50 (MOLT-4)	GI50 (NCI-H460)	GI50 (OVCAR-8)	GI50 (PC-3)	GI50 (SF-268)	GI50 (SK-MEL-28)	GI50 (SK-OV-3)	GI50 (SN12C)	GI50 (SW-620)	GI50 (U-251)	GI50 (UACC-62)	GI50 (CCRF-CEM)	GI50 (SF-295)	GI50 (SR)	GI50 (TK-10)
CCC(=O)Nc1ccc(/N=N/N(C)C)cc1	> 100 µM (inactive)	> 100 µM (inactive)	> 100 µM (inactive)	50.2 µM (inactive)	6.73 µM (inactive)	> 100 µM (inactive)	> 100 µM (inactive)	> 100 µM (inactive)	> 100 µM (inactive)	> 100 µM (inactive)	> 100 µM (inactive)	> 100 µM (inactive)	> 100 µM (inactive)	> 100 µM (inactive)	> 100 µM (inactive)	–	–	–	–
COC(=O)[C@@H](Cc1ccccc1)N1O[C@]12CCCC[C@@H]2NC(=O)OC(C)(C)C (some centres not stated)	26.1 µM (inactive)	38.7 µM (inactive)	18.6 µM (inactive)	40.1 µM (inactive)	37.5 µM (inactive)	25.5 µM (inactive)	–	25.6 µM (inactive)	18 µM (inactive)	22.1 µM (inactive)	–	32.3 µM (inactive)	15.8 µM (inactive)	26.9 µM (inactive)	23.2 µM (inactive)	14.7 µM (inactive)	55.6 µM (inactive)	29.3 µM (inactive)	25.1 µM (inactive)
Cc1ccc2c(c1)C/C(=C\c1ccccc1C(=O)O)C2=O	> 100 µM (inactive)	> 100 µM (inactive)	> 100 µM (inactive)	98.2 µM (inactive)	> 100 µM (inactive)	> 100 µM (inactive)	> 100 µM (inactive)	> 100 µM (inactive)	> 100 µM (inactive)	> 100 µM (inactive)	–	> 100 µM (inactive)	> 100 µM (inactive)	> 100 µM (inactive)	> 100 µM (inactive)	> 100 µM (inactive)	> 100 µM (inactive)	46.3 µM (inactive)	> 100 µM (inactive)
CC(C)(Br)C(Br)CC/C(=C/CBr)CBr.CC(C)(Br)C(Br)CC/C(=C\CBr)CBr (configuration not stated)	1.95 µM (inactive)	2.13 µM (inactive)	2.89 µM (inactive)	2.24 µM (inactive)	2.1 µM (inactive)	3.21 µM (inactive)	2.54 µM (inactive)	–	2.21 µM (inactive)	2.27 µM (inactive)	21.4 µM (inactive)	2 µM (inactive)	2.71 µM (inactive)	3.05 µM (inactive)	2.05 µM (inactive)	0.91 µM (active)	3.46 µM (inactive)	0.783 µM (active)	8.77 µM (inactive)
CC1CC(N)=Nc2ccccc2N1 (configuration not stated)	> 100 µM (inactive)	> 100 µM (inactive)	> 100 µM (inactive)	> 100 µM (inactive)	> 100 µM (inactive)	–	> 100 µM (inactive)	> 100 µM (inactive)	> 100 µM (inactive)	> 100 µM (inactive)	> 100 µM (inactive)	> 100 µM (inactive)	> 100 µM (inactive)	> 100 µM (inactive)	> 100 µM (inactive)	> 100 µM (inactive)	> 100 µM (inactive)	–	> 100 µM (inactive)
CCOC(=O)CO/N=C\C1=CC(=O)C2CC1C2(C)C (configuration not stated)	> 100 µM (inactive)	> 100 µM (inactive)	–	> 100 µM (inactive)	> 100 µM (inactive)	–	> 100 µM (inactive)	> 100 µM (inactive)	> 100 µM (inactive)	> 100 µM (inactive)	–	> 100 µM (inactive)	> 100 µM (inactive)	> 100 µM (inactive)	> 100 µM (inactive)	> 100 µM (inactive)	> 100 µM (inactive)	–	> 100 µM (inactive)
COC1=CC(=O)C2C(C1=O)[C@@H]1c3ccccc3C[C@H]21 (some centres not stated)	> 100 µM (inactive)	–	> 100 µM (inactive)	> 100 µM (inactive)	> 100 µM (inactive)	> 100 µM (inactive)	85.3 µM (inactive)	–	> 100 µM (inactive)	> 100 µM (inactive)	> 100 µM (inactive)	–	> 100 µM (inactive)	> 100 µM (inactive)	> 100 µM (inactive)	> 100 µM (inactive)	> 100 µM (inactive)	> 100 µM (inactive)	> 100 µM (inactive)
COc1ccc(-c2cc(-c3ccccc3)n(C3OC(COC(C)=O)C(OC(C)=O)C(OC(C)=O)C3OC(C)=O)c(=S)c2C#N)cc1 (configuration not stated)	3.44 µM (inactive)	6.07 µM (inactive)	3.81 µM (inactive)	3.61 µM (inactive)	17.9 µM (inactive)	7.48 µM (inactive)	3.58 µM (inactive)	12.4 µM (inactive)	14.2 µM (inactive)	12.6 µM (inactive)	18.8 µM (inactive)	9.79 µM (inactive)	13.9 µM (inactive)	6.79 µM (inactive)	4.79 µM (inactive)	–	5.47 µM (inactive)	13.6 µM (inactive)	25.9 µM (inactive)
COc1ccc(/C=C2/S/C(=N\c3ccccc3)N(NC(=O)Cc3ccccc3)C2=O)cc1	> 100 µM (inactive)	> 100 µM (inactive)	> 100 µM (inactive)	> 100 µM (inactive)	> 100 µM (inactive)	> 100 µM (inactive)	> 100 µM (inactive)	–	> 100 µM (inactive)	> 100 µM (inactive)	> 100 µM (inactive)	> 100 µM (inactive)	> 100 µM (inactive)	> 100 µM (inactive)	> 100 µM (inactive)	> 100 µM (inactive)	> 100 µM (inactive)	–	> 100 µM (inactive)
CCc1nnc(S)n1/N=C/c1ccc(-c2ccc([N+](=O)[O-])cc2)o1	> 100 µM (inactive)	> 100 µM (inactive)	> 100 µM (inactive)	> 100 µM (inactive)	> 100 µM (inactive)	> 100 µM (inactive)	> 100 µM (inactive)	–	> 100 µM (inactive)	> 100 µM (inactive)	> 100 µM (inactive)	> 100 µM (inactive)	> 100 µM (inactive)	> 100 µM (inactive)	> 100 µM (inactive)	–	> 100 µM (inactive)	> 100 µM (inactive)	> 100 µM (inactive)
CC(C)C(=O)Oc1cc2c(=O)oc3c(OC(=O)C(C)C)c(OC(=O)C(C)C)cc4c(=O)oc(c1OC(=O)C(C)C)c2c34	> 100 µM (inactive)	> 100 µM (inactive)	> 100 µM (inactive)	> 100 µM (inactive)	> 100 µM (inactive)	> 100 µM (inactive)	> 100 µM (inactive)	> 100 µM (inactive)	> 100 µM (inactive)	> 100 µM (inactive)	> 100 µM (inactive)	> 100 µM (inactive)	> 100 µM (inactive)	> 100 µM (inactive)	> 100 µM (inactive)	> 100 µM (inactive)	> 100 µM (inactive)	–	> 100 µM (inactive)
CC/C=C/C(=O)CC(O)(C(F)(F)F)C(F)(F)F	> 100 µM (inactive)	> 100 µM (inactive)	> 100 µM (inactive)	–	> 100 µM (inactive)	> 100 µM (inactive)	> 100 µM (inactive)	–	> 100 µM (inactive)	> 100 µM (inactive)	> 100 µM (inactive)	> 100 µM (inactive)	> 100 µM (inactive)	> 100 µM (inactive)	> 100 µM (inactive)	73.5 µM (inactive)	> 100 µM (inactive)	> 100 µM (inactive)	> 100 µM (inactive)
c1ccc(CNc2ncnc3nn[nH]c23)cc1	> 100 µM (inactive)	> 100 µM (inactive)	> 100 µM (inactive)	> 100 µM (inactive)	> 100 µM (inactive)	–	> 100 µM (inactive)	> 100 µM (inactive)	–	> 100 µM (inactive)	> 100 µM (inactive)	> 100 µM (inactive)	> 100 µM (inactive)	> 100 µM (inactive)	> 100 µM (inactive)	> 100 µM (inactive)	> 100 µM (inactive)	–	> 100 µM (inactive)
CC(=O)NNC1=NN(C(C)=O)C2(S1)C(=O)Nc1ccc(Br)cc12 (configuration not stated)	> 100 µM (inactive)	> 100 µM (inactive)	> 100 µM (inactive)	> 100 µM (inactive)	> 100 µM (inactive)	93.3 µM (inactive)	> 100 µM (inactive)	> 100 µM (inactive)	> 100 µM (inactive)	> 100 µM (inactive)	–	> 100 µM (inactive)	–	> 100 µM (inactive)	79.1 µM (inactive)	> 100 µM (inactive)	> 100 µM (inactive)	> 100 µM (inactive)	> 100 µM (inactive)
O=C(O)C1CC(c2ccccc2)=NN1c1ccccc1 (configuration not stated)	56.9 µM (inactive)	66.7 µM (inactive)	> 100 µM (inactive)	47.5 µM (inactive)	31.7 µM (inactive)	54.7 µM (inactive)	> 100 µM (inactive)	41 µM (inactive)	81.1 µM (inactive)	> 100 µM (inactive)	> 100 µM (inactive)	> 100 µM (inactive)	92.3 µM (inactive)	62.1 µM (inactive)	> 100 µM (inactive)	48.4 µM (inactive)	64.6 µM (inactive)	–	64 µM (inactive)
CNC(=O)Nc1ccccc1	> 100 µM (inactive)	> 100 µM (inactive)	> 100 µM (inactive)	> 100 µM (inactive)	> 100 µM (inactive)	> 100 µM (inactive)	> 100 µM (inactive)	> 100 µM (inactive)	> 100 µM (inactive)	> 100 µM (inactive)	–	> 100 µM (inactive)	> 100 µM (inactive)	> 100 µM (inactive)	> 100 µM (inactive)	> 100 µM (inactive)	> 100 µM (inactive)	> 100 µM (inactive)	> 100 µM (inactive)
